This is an account of results in EP1247803A2, “Indolinone compounds suitable for modulation of protein kinases” (Sugen, Inc., priority 1996, dated 1998).

The target in one experiment is T1, EGFR (Homo sapiens, UniProt P00533).
T1 construct: Add 7 ug A431 cell lysate per well (EGFR source); endogenous in cells; host or cells: A431
The experiment in a line: EGFR ELISA assay (in vitro kinase activity, EGFR captured from A431 cell lysate). It counts as biochemical. More on the design: concentration or dose not given beside the values. A digest of the protocol: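 EGFR from A431 lysate was captured on anti-EGFR antibody-coated plates and preincubated with compounds for 30 min. Autophosphorylation ran 5 min with 3 uM ATP and 5 mM MnCl2 (final), stopped with 20 mM EDTA. Phosphotyrosine was detected by anti-pTyr ELISA with ABTS/H2O2, read at 410 nm.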
On the technique in general: In an ELISA, binding on a coated surface is turned into a signal by an enzyme label.

The next experiment concerns the target PDGF-R (Homo sapiens, UniProt P09619). The experiment in a line: PDGF-R ELISA. In kind it is cell-based. From the text:
A PDGF-R ELISA is described in International Patent Publication No. WO 96/40116, published December 19, 1996 by Tang et al.

Chain of PDGF-R (P09619 33-1106, species assumed): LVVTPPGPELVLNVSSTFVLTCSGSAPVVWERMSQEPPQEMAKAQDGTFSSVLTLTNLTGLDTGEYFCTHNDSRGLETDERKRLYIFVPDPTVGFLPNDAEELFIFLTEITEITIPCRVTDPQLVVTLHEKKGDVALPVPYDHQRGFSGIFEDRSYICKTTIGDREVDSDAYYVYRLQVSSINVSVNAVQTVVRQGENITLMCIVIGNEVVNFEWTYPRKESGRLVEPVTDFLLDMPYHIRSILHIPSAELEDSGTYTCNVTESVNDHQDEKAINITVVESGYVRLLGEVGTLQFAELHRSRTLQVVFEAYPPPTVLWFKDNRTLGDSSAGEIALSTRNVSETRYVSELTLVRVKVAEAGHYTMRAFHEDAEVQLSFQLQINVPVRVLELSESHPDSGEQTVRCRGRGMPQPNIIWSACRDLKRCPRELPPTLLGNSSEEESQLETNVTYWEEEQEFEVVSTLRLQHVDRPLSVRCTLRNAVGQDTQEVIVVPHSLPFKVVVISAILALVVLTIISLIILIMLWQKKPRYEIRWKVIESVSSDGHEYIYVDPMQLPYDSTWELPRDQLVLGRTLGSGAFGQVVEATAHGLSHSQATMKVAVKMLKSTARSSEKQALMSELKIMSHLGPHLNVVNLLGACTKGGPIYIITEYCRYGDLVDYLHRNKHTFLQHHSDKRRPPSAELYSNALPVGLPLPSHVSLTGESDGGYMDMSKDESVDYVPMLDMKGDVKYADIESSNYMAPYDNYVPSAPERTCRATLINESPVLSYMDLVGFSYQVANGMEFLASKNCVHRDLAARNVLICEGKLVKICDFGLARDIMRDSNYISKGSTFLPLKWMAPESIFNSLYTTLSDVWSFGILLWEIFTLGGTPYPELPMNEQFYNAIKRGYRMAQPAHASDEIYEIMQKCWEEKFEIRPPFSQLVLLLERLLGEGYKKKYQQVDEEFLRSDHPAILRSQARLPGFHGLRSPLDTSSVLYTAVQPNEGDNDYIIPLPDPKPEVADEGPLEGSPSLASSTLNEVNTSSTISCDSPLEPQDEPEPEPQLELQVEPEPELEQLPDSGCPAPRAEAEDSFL
T1 sequence (P00533 25-1210): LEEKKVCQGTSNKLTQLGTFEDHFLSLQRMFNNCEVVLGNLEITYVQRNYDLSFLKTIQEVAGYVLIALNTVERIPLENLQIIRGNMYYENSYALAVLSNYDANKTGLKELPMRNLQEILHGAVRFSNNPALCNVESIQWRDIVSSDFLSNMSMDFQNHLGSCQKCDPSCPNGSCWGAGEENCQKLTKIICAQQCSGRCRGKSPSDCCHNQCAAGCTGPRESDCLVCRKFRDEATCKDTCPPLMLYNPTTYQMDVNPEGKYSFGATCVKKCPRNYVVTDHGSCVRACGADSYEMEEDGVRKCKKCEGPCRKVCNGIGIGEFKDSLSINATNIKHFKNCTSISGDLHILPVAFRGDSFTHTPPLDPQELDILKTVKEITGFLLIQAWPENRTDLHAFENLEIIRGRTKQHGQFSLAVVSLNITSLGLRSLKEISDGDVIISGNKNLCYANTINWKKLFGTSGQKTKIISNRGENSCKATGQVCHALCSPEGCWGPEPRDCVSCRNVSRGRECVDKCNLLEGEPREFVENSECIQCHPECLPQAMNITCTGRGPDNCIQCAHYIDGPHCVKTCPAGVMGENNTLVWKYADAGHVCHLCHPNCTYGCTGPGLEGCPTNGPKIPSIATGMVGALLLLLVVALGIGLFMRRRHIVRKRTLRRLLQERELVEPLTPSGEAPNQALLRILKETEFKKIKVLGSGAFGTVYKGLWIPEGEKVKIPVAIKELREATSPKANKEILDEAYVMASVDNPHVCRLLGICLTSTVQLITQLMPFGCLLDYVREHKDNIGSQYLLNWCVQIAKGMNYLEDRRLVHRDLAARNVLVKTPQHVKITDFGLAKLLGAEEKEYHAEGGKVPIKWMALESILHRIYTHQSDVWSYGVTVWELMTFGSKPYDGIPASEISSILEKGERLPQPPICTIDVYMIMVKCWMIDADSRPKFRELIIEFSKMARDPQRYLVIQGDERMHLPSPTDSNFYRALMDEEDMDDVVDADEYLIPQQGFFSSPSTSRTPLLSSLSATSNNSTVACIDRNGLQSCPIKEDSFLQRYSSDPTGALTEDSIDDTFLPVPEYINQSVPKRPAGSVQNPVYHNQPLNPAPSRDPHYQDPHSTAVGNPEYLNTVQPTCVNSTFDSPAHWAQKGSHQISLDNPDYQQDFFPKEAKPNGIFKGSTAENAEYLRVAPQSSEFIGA

Regarding `CNS(=O)(=O)c1ccc2c(c1)C(=Cc1cc(C)c(OCc3ccccc3)c(C)c1)C(=O)N2` [10733/D07], the “Biochem EGFR %Inhibition” value at EGFR turned out to be 37.4%. Moreover, the “PDGF Kinase %Inhibition” value on PDGF-R is reported as 0.9%.

On to `COc1cc(Br)cc(C=C2C(=O)Nc3c(Br)cc(Br)cc32)c1O` [10733/A08], for which, at EGFR, the “Biochem EGFR %Inhibition” value came out at 19.5%. Further, the “PDGF Kinase %Inhibition” value at PDGF-R is -10.1%.

Consider `COc1c(C(C)C)cc(C=C2C(=O)Nc3ccc(S(=O)(=O)N4CCOCC4)cc32)cc1C(C)C` [10732/F03], for which, at EGFR, the “Biochem EGFR %Inhibition” value was 54.1%. In addition, on PDGF-R, the “PDGF Kinase %Inhibition” value is 51.8%.

In the case of `CC(C)(C)c1cc(C=C2C(=O)Nc3ccc(CCCl)cc32)cc(Cl)c1OCc1ccccc1` [10732/G10], the “Biochem EGFR %Inhibition” value at EGFR is recorded as -38.2%. In addition, the “PDGF Kinase %Inhibition” value at PDGF-R is given as 20.4%.

For the molecule `CC(C)(C)c1cc(C=C2C(=O)Nc3c(Br)cc(Br)cc32)cc(C(C)(C)C)c1OCc1ccccc1` [10733/A05], the “Biochem EGFR %Inhibition” value on EGFR came to 55.2%. For the same molecule, at PDGF-R, the “PDGF Kinase %Inhibition” value was -4.0%.

Take `O=C1Nc2ccc(I)cc2C1=Cc1cc([N+](=O)[O-])ccc1O` [10733/B10]: the “Biochem EGFR %Inhibition” value on EGFR was found to be 11.8%. Moreover, at PDGF-R, the “PDGF Kinase %Inhibition” value is recorded as -59.6%.

As for `COc1c(I)cc(C=C2C(=O)Nc3ccc(S(=O)(=O)N4CCOCC4)cc32)cc1C(C)(C)C` [10732/F11], the “Biochem EGFR %Inhibition” value on EGFR was -21.5%. Moreover, the “PDGF Kinase %Inhibition” value at PDGF-R is reported as 77.5%.

In the case of `COc1c(Br)cc(C=C2C(=O)Nc3ccc(CCCl)cc32)cc1C(C)(C)C` [10732/G07], at EGFR, the “Biochem EGFR %Inhibition” value is reported as -21.9%. Also, on PDGF-R, the “PDGF Kinase %Inhibition” value was 21.4%.

On to `COc1c(O)ccc(C=C2C(=O)Nc3ccc(I)cc32)c1[N+](=O)[O-]` [10733/B11], for which, at EGFR, the “Biochem EGFR %Inhibition” value was 12.5%. On PDGF-R, the “PDGF Kinase %Inhibition” value is on record as 23.7%.

In the case of `CC(C)(C)c1cc(C=C2C(=O)Nc3ccc(CCCl)cc32)cc(Br)c1OCc1ccccc1` [10732/G08], the “Biochem EGFR %Inhibition” value on EGFR is recorded as -20.4%. Besides, on PDGF-R, the “PDGF Kinase %Inhibition” value was 37.6%.

For the molecule `COc1ccc(C=C2C(=O)Nc3ccc(CCCl)cc32)cc1C(C)(C)C` [10732/G05], at EGFR, the “Biochem EGFR %Inhibition” value is recorded as 3.8%. Besides, on PDGF-R, the “PDGF Kinase %Inhibition” value is 15.4%.

As to `COc1c(C)cc(C=C2C(=O)Nc3ccc(I)cc32)cc1C` [10733/B06], the “Biochem EGFR %Inhibition” value on EGFR is reported as 43.6%. Also, the “PDGF Kinase %Inhibition” value at PDGF-R is -9.2%.

Take `COc1c(C(C)(C)C)cc(C=C2C(=O)Nc3ccc(I)cc32)cc1C(C)(C)C` [10733/B04]: the “Biochem EGFR %Inhibition” value on EGFR is 28.5%. For the same molecule, on PDGF-R, the “PDGF Kinase %Inhibition” value amounted to 24.9%.

For `CC(C)(C)c1cc(C=C2C(=O)Nc3ccc(S(=O)(=O)N4CCOCC4)cc32)cc(Br)c1OCc1ccccc1` [10732/F08], at EGFR, the “Biochem EGFR %Inhibition” value is -11.9%. In addition, the “PDGF Kinase %Inhibition” value on PDGF-R was determined as 14.9%.

`O=C1Nc2ccc(CCCl)cc2C1=CC(c1cccs1)C(F)(F)F` (centres unmarked) [10732/G02]: at EGFR, the “Biochem EGFR %Inhibition” value is -0.7%. Further, the “PDGF Kinase %Inhibition” value at PDGF-R worked out at 10.3%.

For the molecule `CC(C)(C)c1cc(C=C2C(=O)Nc3ccc(S(=O)(=O)Nc4ccc(C(F)(F)F)cc4)cc32)ccc1OCc1ccccc1` [10732/E06], the “Biochem EGFR %Inhibition” value at EGFR was -11.0%. Further, the “PDGF Kinase %Inhibition” value at PDGF-R amounted to 16.9%.

For `COc1c(C(C)(C)C)cc(C=C2C(=O)Nc3c(Br)cc(Br)cc32)cc1C(C)(C)C` [10733/A04], the “Biochem EGFR %Inhibition” value on EGFR turned out to be 32.8%. Further, the “PDGF Kinase %Inhibition” value at PDGF-R is reported as -14.1%.

Take `O=C1Nc2ccc(S(=O)(=O)N3CCOCC3)cc2C1=CC(c1cccs1)C(F)(F)F` (centres unmarked) [10732/F02]: the “Biochem EGFR %Inhibition” value on EGFR is listed as 23.1%. Moreover, the “PDGF Kinase %Inhibition” value on PDGF-R is given as -9.4%.

Regarding `COc1ccc(C=C2C(=O)Nc3ccc(S(=O)(=O)N4CCOCC4)cc32)cc1C(C)(C)C` [10732/F05], at EGFR, the “Biochem EGFR %Inhibition” value is -30.7%. Moreover, the “PDGF Kinase %Inhibition” value on PDGF-R was determined as 12.8%.

Consider `CC(C)(C)c1cc(C=C2C(=O)Nc3ccc(S(=O)(=O)N4CCOCC4)cc32)cc(Cl)c1OCc1ccccc1` [10732/F10], for which the “Biochem EGFR %Inhibition” value at EGFR is listed as 0.8%. Moreover, the “PDGF Kinase %Inhibition” value on PDGF-R amounted to 15.9%.

Take `Cc1c(Br)ccc2c1C(=Cc1cc(I)c(OCc3ccccc3)c(C(C)(C)C)c1)C(=O)N2` [10733/C02]: the “Biochem EGFR %Inhibition” value on EGFR amounted to 31.6%. The “PDGF Kinase %Inhibition” value at PDGF-R is 15.1%.

In the case of `CC(C)(C)c1cc(C=C2C(=O)Nc3ccc(S(=O)(=O)Nc4ccc(C(F)(F)F)cc4)cc32)cc(Br)c1OCc1ccccc1` [10732/E08], the “Biochem EGFR %Inhibition” value on EGFR is on record as -21.7%. Besides, the “PDGF Kinase %Inhibition” value on PDGF-R was 32.6%.

Take `COc1c(C(C)(C)C)cc(C=C2C(=O)Nc3ccc(Br)c(C)c32)cc1C(C)(C)C` [10733/C04]: on EGFR, the “Biochem EGFR %Inhibition” value is reported as 29.0%. Also, the “PDGF Kinase %Inhibition” value on PDGF-R came to 19.2%.

For the molecule `O=C1Nc2c(Br)cc(Br)cc2C1=Cc1cc(Br)ccc1O` [10733/A09], the “Biochem EGFR %Inhibition” value at EGFR is 25.9%. Further, the “PDGF Kinase %Inhibition” value on PDGF-R is on record as -7.6%.

In the case of `CC(C)(C)c1cc(C=C2C(=O)Nc3c(Br)cc(Br)cc32)cc(I)c1OCc1ccccc1` [10733/A02], the “Biochem EGFR %Inhibition” value at EGFR is listed as 25.9%. Besides, on PDGF-R, the “PDGF Kinase %Inhibition” value is on record as 11.5%.

Take `CNS(=O)(=O)c1ccc2c(c1)C(=Cc1cc(C(C)(C)C)c(OCc3ccccc3)c(C(C)(C)C)c1)C(=O)N2` [10733/D05]: at EGFR, the “Biochem EGFR %Inhibition” value turned out to be 10.6%. Besides, the “PDGF Kinase %Inhibition” value at PDGF-R worked out at 16.8%.

`Cc1cc(C=C2C(=O)Nc3c(Br)cc(Br)cc32)cc(C)c1OCc1ccccc1` [10733/A07]: the “Biochem EGFR %Inhibition” value on EGFR is 28.5%. Moreover, the “PDGF Kinase %Inhibition” value at PDGF-R is on record as -12.9%.

As to `CC(C)(C)c1cc(C=C2C(=O)Nc3ccc(CCCl)cc32)ccc1OCc1ccccc1` [10732/G06], the “Biochem EGFR %Inhibition” value at EGFR was -12.1%. Besides, on PDGF-R, the “PDGF Kinase %Inhibition” value stood at 0.2%.

As to `COc1cc(Br)cc(C=C2C(=O)Nc3ccc(Br)c(C)c32)c1O` [10733/C08], the “Biochem EGFR %Inhibition” value on EGFR is recorded as 65.8%. The “PDGF Kinase %Inhibition” value on PDGF-R is recorded as -3.6%.

As to `COc1cc(Br)cc(C=C2C(=O)Nc3ccc(I)cc32)c1O` [10733/B08], the “Biochem EGFR %Inhibition” value at EGFR is given as 32.5%. In addition, the “PDGF Kinase %Inhibition” value on PDGF-R is given as -15.7%.

Consider `CC(C)c1cc(C=C2C(=O)Nc3ccc(S(=O)(=O)N4CCOCC4)cc32)cc(C(C)C)c1Oc1ccccc1` [10732/F04], for which the “Biochem EGFR %Inhibition” value at EGFR is reported as -0.1%. Further, the “PDGF Kinase %Inhibition” value at PDGF-R is 23.5%.
